Assay results taken from patent publication US11351291B2, “Systems or apparatuses and methods for performing dialysis” (ADVITOS GMBH, priority 2016, dated 2022).

Molecular target: T1, albumin (Homo sapiens, UniProt P02768)
Assay: pH dependence of binding affinity for albumin
Settings: pH above about 3
Source text: Adjusting the pH of the fluids to the acidic and/or basic range makes it possible to selectively influence the binding of different substances to the respective carrier proteins or adsorbers. […] For example, the binding of copper ions to albumin can be weakened in this way so that free, dissolved copper ions in the following filter can be removed by dialysis, filtration, diafiltration, centrifugation, a field, or sorting by weight difference. Analogously, the pH of the fluid can be adjusted to the basic range so that the toxins liberated in the alkaline range can then be eliminated from the fluid by dialysis, filtration or diafiltration. […] A pH range of 8-13 is often preferred.
Devices for adjusting the pH include especially devices for adding acid or base, for example metering pumps. Appropriate acids or bases arc aqueous solutions of biologically compatible acids or bases. It is generally preferable to use acids or bases whose conjugate bases or acids are ions that occur naturally in the human organism. Examples of acids which can be used are hydrochloric acid, sulfuric acid or acetic acid, hydrochloric acid being preferred. Examples of bases which can be used are sodium hydroxide solution or potassium hydroxide solution, sodium hydroxide solution being preferred. […]

T1 sequence (P02768 25-609): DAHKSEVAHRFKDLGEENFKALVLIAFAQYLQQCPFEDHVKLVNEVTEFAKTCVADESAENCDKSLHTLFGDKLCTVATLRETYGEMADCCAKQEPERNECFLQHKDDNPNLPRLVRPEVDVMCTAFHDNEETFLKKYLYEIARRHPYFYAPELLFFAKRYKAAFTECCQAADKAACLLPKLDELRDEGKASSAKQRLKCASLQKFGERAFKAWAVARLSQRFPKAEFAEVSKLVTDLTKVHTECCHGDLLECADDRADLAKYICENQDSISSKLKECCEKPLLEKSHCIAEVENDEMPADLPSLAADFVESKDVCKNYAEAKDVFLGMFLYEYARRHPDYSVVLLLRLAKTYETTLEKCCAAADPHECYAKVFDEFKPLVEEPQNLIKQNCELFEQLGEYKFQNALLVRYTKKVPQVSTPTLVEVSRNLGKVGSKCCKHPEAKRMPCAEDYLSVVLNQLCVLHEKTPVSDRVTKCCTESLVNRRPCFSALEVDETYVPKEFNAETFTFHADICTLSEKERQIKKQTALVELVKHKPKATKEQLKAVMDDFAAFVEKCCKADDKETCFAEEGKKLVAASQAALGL

Row | Molecule | binding affinity for albumin
1 | Copper(II) | particularly high binding affinity

Same assay, conditions: pH range around 2

Row | Molecule | binding affinity for albumin
2 | Copper(II) | significantly lowered

Molecular target: T1, albumin
Assay: not given
Settings: binding to albumin; reported association constants; cited from earlier work

Row | Molecule | Association constant, KA [M⁻¹]
3 | C=C1CC[C@H](O)C/C1=C/C=C1\CCC[C@]2(C)[C@@H]([C@H](C)CCCC(C)(C)O)CC[C@@H]12 [25,OH—VitaminD3] | 600000
4 | C[C@]12CCC(=O)C=C1CC[C@@H]1[C@@H]2[C@@H](O)C[C@]2(C=O)[C@@H](C(=O)CO)CC[C@@H]12 [Aldosterone] | 3200
5 | C/C1=C2N=C(/C=C3N=C(/C(C)=C4\[N-]C(C(CC(N)=O)C4(C)CCC(=O)NCC(C)OP(=O)([O-])OC4C(CO)OC(n5cnc6cc(C)c(C)cc65)C4O)C4(C)N=C1C(CCC(N)=O)C4(C)CC(N)=O)C(CCC(N)=O)C\3(C)C)C(CCC(N)=O)C/2(C)CC(N)=O.O.[Co+3].[OH-] (centres unmarked) [Aquocobalamin] | 2e+07
6 | [Ca+2] [Calcium] | 1510
7 | Cl [Chloride] | 720
8 | C[C@]12CCC(=O)C=C1CC[C@@H]1[C@@H]2[C@@H](O)C[C@@]2(C)[C@H]1CC[C@]2(O)C(=O)CO [Cortisol] | 5000
9 | CCCCC[C@H](O)/C=C/[C@H]1[C@H](O)CC(=O)[C@@H]1CCCCCCC(=O)O [Eicosanoids (PGE1), PGE1] | 70000
10 | C=CC1=C(C)c2cc3[n-]c(cc4[n-]c(cc5nc(cc1n2)C(C)=C5C=C)c(C)c4CCC(=O)O)c(CCC(=O)O)c3C.O.[Fe+2] [Hematin] | 1.1e+08
11 | N[C@@H](Cc1c[nH]c2ccccc12)C(=O)O [L-tryptophan] | 10000
12 | [Mg+2] [Magnesium] | 100
13 | CC(=O)[C@H]1CC[C@H]2[C@@H]3CCC4=CC(=O)CC[C@]4(C)[C@H]3CC[C@]12C [Progesterone] | 360000
14 | C[C@]12CC[C@H]3[C@@H](CCC4=CC(=O)CC[C@@]43C)[C@@H]1CC[C@@H]2O [Testosterone] | 24000
15 | [Zn+2] [Zinc(II)] | 3.4e+07
16 | Copper(II) | 1.5e+16
17 | t-25-(OH)2—Vitamin D3 | 50000
